ChEMBL document CHEMBL1127005, “Design of novel agents for the therapy of non-insulin dependent diabetes mellitus (NIDDM)” (Bioorg Med Chem Lett, 1993)

Organism: Rattus norvegicus
Test: Inhibition against gluconeogenesis was expressed as effect of compound on rat hepatocyte glucose production from 10 mM lactate/1 mM pyruvate/0.5 mM oleate
Assay type: functional

Row | SMILES | IC50 (Rattus norvegicus, Hepatocyte) [µM] | IC50 (hepatocyte) [µM]
1 | C=C1[C@@H](CC(N)=O)[C@H]1CCCC | 4 | –
2 | C=C1[C@@H](CCCCCCCCCCCC)[C@@H]1CC(=O)O | 160 | –
3 | C=C1[C@@H](CC(=O)O)[C@H]1CCCC | 15 | –
4 | C=C1C[C@@H]1CC(N)=O | 30 | –
5 | C=C1[C@@H](CC(N)=O)[C@H]1CCCCCCCCCCCC | 32 | –
6 | C=C1[C@H](CCCC)[C@H]1CC(N)=O | 60 | –
7 | C=C1[C@H](CCCC)[C@H]1CC(=O)O | 30 | –
8 | C=C1[C@@H](CC(N)=O)[C@H]1CCCCCCCC | 8 | –
9 | C=C1C[C@@H]1CC(=O)O | 60 | –
10 | C=C1[C@@H](CC(=O)O)[C@H]1CCCCCCCCCCCC | 25 | –
11 | C=C1[C@@H](CC(=O)O)[C@H]1CCCCCCCC | 5 | –
12 | C=C1[C@H](CCCCCCCCCCCC)[C@H]1CC(=O)O (stereo in doubt) | – | 13
13 | C=C1[C@H](CCCCCCCCCCCC)[C@H]1CC(=O)O (stereo in doubt; 4d) | – | 200
